Test results reported in ChEMBL document CHEMBL3352625, “Development of novel neurokinin 3 receptor (NK3R) selective agonists with resistance to proteolytic degradation” (J Med Chem, 2014).
Activity calls are given as the source filed them. The calls are words filed in the database; no cut-off is given here. *1 amine or outer side, *2 acyl side, *3 side chain or, on linkers, in order; H or OH if unused. Where a SMILES comes first, the peptide text is derived from it. [ ]: non-standard residue; d: D form. Glyψ(E-CHCH)Leu = CC(C)C[C@H](/C=C/CN[*:1])C(=O)[*:2]; X4 = CC(C)C[C@H](N/C(CN[*:1])=N\O)C(=O)[*:2]; X3 = CC(C)C[C@H](NC(=N)CN[*:1])C(=O)[*:2]; X1 = CC(C)C[C@H](CCCN[*:1])C(=O)[*:2]; X2 = CC(C)C/C(=C\CCN[*:1])C(=O)[*:2]; NMeF = CN[C@@H](Cc1ccccc1)C(=O)O; Suc = O=C(CCC(=O)[*:2])[*:1]

Legend:
Neuromedin-K receptor [1] = target: T1, Neuromedin-K receptor (Homo sapiens, UniProt P29371); assay: (§1) Agonist activity at human NK3R expressed in CHO cells assessed as induction of Ca2+ influx […]; type: functional, cell-based
T1 sequence (P29371 whole entry): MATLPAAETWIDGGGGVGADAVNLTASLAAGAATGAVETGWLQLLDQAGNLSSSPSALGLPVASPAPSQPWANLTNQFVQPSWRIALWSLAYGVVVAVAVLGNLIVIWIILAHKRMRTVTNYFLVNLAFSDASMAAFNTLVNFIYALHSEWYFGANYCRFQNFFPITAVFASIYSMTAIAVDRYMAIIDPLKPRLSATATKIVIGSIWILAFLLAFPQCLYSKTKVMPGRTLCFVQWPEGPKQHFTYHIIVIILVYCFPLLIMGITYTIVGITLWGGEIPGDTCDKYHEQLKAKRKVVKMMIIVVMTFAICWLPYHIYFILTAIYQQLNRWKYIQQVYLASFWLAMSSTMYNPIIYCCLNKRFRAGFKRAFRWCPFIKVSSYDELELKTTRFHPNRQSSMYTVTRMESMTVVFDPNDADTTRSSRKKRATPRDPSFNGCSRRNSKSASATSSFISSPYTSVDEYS

Neuromedin-K receptor [2] = target: T1, Neuromedin-K receptor; assay: Displacement of [125I]His3, MePhe7 from human NK3R expressed in CHO cell membranes by scintillation counting
[3] = target: T2, Substance-K receptor (Homo sapiens) (UniProt P21452); assay: Displacement of [125I]-NKA from […] expressed in CHO cell membranes at 10 uM by scintillation counting
T2 sequence (whole entry): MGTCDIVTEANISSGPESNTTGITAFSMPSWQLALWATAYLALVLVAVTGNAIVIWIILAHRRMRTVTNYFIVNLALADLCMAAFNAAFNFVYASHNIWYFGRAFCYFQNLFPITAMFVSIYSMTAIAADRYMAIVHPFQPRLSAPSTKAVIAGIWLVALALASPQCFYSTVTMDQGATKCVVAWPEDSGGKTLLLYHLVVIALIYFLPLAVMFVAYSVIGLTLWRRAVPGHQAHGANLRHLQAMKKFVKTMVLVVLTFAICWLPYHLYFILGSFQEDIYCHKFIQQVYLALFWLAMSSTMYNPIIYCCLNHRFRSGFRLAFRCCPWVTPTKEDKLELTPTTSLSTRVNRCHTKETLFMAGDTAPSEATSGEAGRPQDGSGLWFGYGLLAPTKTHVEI

[4] = target: Substance-P receptor (Homo sapiens) (UniProt P25103); assay: Displacement of [125I]-BH-SP from human NK1R expressed in CHO cell membranes at 10 uM by scintillation counting
Substance-P receptor (Homo sapiens), sequence (P25103 whole entry): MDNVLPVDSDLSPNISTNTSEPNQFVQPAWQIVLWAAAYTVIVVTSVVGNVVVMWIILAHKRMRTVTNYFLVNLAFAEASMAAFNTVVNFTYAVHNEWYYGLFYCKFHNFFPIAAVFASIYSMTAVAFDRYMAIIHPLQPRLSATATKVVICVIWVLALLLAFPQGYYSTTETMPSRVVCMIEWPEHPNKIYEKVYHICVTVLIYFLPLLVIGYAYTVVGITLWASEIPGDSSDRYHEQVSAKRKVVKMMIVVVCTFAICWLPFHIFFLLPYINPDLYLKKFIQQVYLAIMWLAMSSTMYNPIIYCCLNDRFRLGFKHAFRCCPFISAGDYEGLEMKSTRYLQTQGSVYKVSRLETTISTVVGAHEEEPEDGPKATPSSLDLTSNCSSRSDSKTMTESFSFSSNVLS

[5] = target: T3, Neuromedin-K receptor (Homo sapiens) (UniProt P29371); assay: as §1; type: functional, cell-based
T3 sequence (whole entry): T1 sequence (P29371 whole entry)

[6] = Agonist activity at goat NK3R; design: species or system Capra hircus
[7] = Agonist activity at cattle NK3R; design: species or system Bos taurus
Neuromedin-K receptor [8] = target: T1, Neuromedin-K receptor; assay: Agonist activity at human NK3R expressed in CHO cells assessed as potentiation of senktide-induced effect; type: cell-based
Neuromedin-K receptor [9] = target: T4, Neuromedin-K receptor (Rattus norvegicus, UniProt P16177); assay: Agonist activity at rat NK3R
T4 sequence (P16177 whole entry): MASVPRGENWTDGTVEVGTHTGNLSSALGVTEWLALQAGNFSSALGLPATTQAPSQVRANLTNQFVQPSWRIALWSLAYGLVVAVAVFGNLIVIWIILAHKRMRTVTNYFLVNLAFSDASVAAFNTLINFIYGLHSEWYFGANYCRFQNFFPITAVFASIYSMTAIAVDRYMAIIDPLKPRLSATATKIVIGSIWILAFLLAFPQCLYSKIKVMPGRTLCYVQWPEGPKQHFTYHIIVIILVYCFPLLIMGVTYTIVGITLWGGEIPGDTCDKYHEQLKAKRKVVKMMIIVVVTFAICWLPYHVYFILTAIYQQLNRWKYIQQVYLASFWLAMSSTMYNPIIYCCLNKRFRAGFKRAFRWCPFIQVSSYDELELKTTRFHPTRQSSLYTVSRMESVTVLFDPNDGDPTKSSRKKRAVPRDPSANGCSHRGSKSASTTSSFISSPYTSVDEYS

[10] = Induction of GnRH release in ovariectomized goat assessed as induction of multiple-unit activity volley measured as duration of effect at 200 nmol, iv as single dose; type: functional, Capra hircus

Structure (SMILES)	IC50 (Neuromedin-K receptor [2])	EC50 (Neuromedin-K receptor [8])	other results
CN(C(=O)[C@@H](N)Cc1ccccc1)[C@@H](Cc1ccccc1)C(=O)NCC(=O)O (H-Phe-[NMeF]-Gly-OH)	–	–	EC50 (Neuromedin-K receptor [1]): > 100000 nM
CN(C(=O)[C@H](Cc1ccccc1)NC(=O)[C@H](CC(=O)O)NC(=O)CCC(=O)O)[C@@H](Cc1ccccc1)C(=O)NCC(=O)O (Suc-DF[NMeF]G-OH)	–	–	Activity [5]: inactive
CSCC[C@H](NC(=O)[C@@H](CCCNC(=O)[C@H](Cc1ccccc1)N(C)C(=O)[C@H](Cc1ccccc1)NC(=O)[C@H](CC(=O)O)NC(=O)CCC(=O)O)CC(C)C)C(N)=O (Suc-DF[NMeF][X1]M-NH2)	19000 nM	920 nM	–
CSCC[C@H](NC(=O)/C(=C/CCNC(=O)[C@H](Cc1ccccc1)N(C)C(=O)[C@H](Cc1ccccc1)NC(=O)[C@H](CC(=O)O)NC(=O)CCC(=O)O)CC(C)C)C(N)=O (Suc-DF[NMeF][X2]M-NH2)	13000 nM	1900 nM	–

Continued by falling IC50 (Neuromedin-K receptor [2]), values first:

IC50 (Neuromedin-K receptor [2])	EC50 (Neuromedin-K receptor [8])	Structure (SMILES)	other results
1100 nM	370 nM	CSCC[C@H](NC(=O)[C@H](CC(C)C)N/C(CNC(=O)[C@H](Cc1ccccc1)N(C)C(=O)[C@H](Cc1ccccc1)NC(=O)[C@H](CC(=O)O)NC(=O)CCC(=O)O)=N\O)C(N)=O (Suc-DF[NMeF][X4]M-NH2)	–
360 nM	100 nM	CSCC[C@H](NC(=O)[C@H](CC(C)C)NC(=N)CNC(=O)[C@H](Cc1ccccc1)N(C)C(=O)[C@H](Cc1ccccc1)NC(=O)[C@H](CC(=O)O)NC(=O)CCC(=O)O)C(N)=O (Suc-DF[NMeF][X3]M-NH2)	–
56 nM	16 nM	CSCC[C@H](NC(=O)[C@@H](/C=C/CNC(=O)[C@H](Cc1ccccc1)N(C)C(=O)[C@H](Cc1ccccc1)NC(=O)[C@H](CC(=O)O)NC(=O)CCC(=O)O)CC(C)C)C(N)=O (Suc-DF[NMeF][Glyψ(E-CHCH)Leu]M-NH2)	EC50 [6]: 11 nM; EC50 [7]: 360 nM; EC50 (Neuromedin-K receptor [9]): 19 nM; Time [10]: 92.1 min
22 nM	–	CSCC[C@H](NC(=O)[C@H](CC(C)C)NC(=O)CNC(=O)[C@H](Cc1ccccc1)N(C)C(=O)[C@H](Cc1ccccc1)NC(=O)[C@H](Cc1ccccc1)NC(=O)[C@H](CC(=O)O)NC(=O)[C@H](Cc1cnc[nH]1)NC(=O)[C@@H](N)CCSC)C(N)=O (H-MHDFF[NMeF]GLM-NH2)	EC50 (Neuromedin-K receptor [1]): 330 nM; inhibition [3]: 78%; inhibition [4]: 22%
